Reference: patent US11492405B2, “Reducing systemic regulatory t cell levels or activity for treatment of disease and injury of the CNS” (Yeda Research and Development Co. Ltd, priority 2014, dated 2022)

Tested on: 5XFAD AD-Tg mice
Assay: Radial arm water maze (RAWM) in 5XFAD AD-Tg mice
Assay type: in vivo, mouse
Details: weekly-GA over 4 weeks
Description: The radial-arm water maze (RAWM) was used to test spatial learning and memory, as was previously described in detail (Alamed et al, 2006). Briefly, six stainless steel inserts were placed in the tank, forming six swim arms radiating from an open central area. The escape platform was located at the end of one arm (the goal arm), 1.5 cm below the water surface, in a pool 1.1 m in diameter. The water temperature was kept between 21-22° C. Water was made opaque with milk powder. Within the testing room, only distal visual shape and object cues were available to the mice to aid in location of the submerged platform. The goal arm location remained constant for a given mouse. On day 1, mice were trained for 15 trials (spaced over 3 h), with trials alternating between a visible and hidden platform, and the last 4 trails with hidden platform only. On day 2, mice were trained for 15 trials with the hidden platform. Entry into an incorrect arm, or failure to select an arm within 15 sec, was scored as an error. Spatial learning and memory were measured by counting the number of arm entry errors or the escape latency of the mice on each trial. Training data were analyzed as the mean errors or escape latency, for training blocks of three consecutive trials.

Glatiramer acetate [GA]
time the improved cognitive performance lasted after the treatment (5XFAD AD-Tg mice): up to 2 months | cognitive performance (MWM, RAWM) (MWM 1 week, RAWM 1 and 2 months after last injection): improved cognitive performance
